Measurements as given in the NIST ThermoML archive (doi:10.1016/j.tca.2012.11.008).
Numbers after ± are expanded uncertainties.

Test: mn = molality of the nth substance listed, in mol/kg
Details: 313.15 K; 101 kPa; Liquid; Sing-around technique in a fixed-path interferometer; m2 = 0

SMILES: O [water] + NC(CO)(CO)CO.O=C(c1ccccc1)c1ccc2n1CCC2C(=O)O
- speed of sound: 1529.1 ± 1.3 m/s
